# Experimental data as given in patent US20020192233A1, “Human T cell response to MHC-binding motif clusters” (priority 2000, published 2002).
# What was measured:
# [1] = system: peripheral blood mononuclear cells from Mtb-immune (PPD skin-test positive) subjects; assay type: cell-based, human; details: for Phil # responders (n = 38) / Phil % responders (n = 38): Philippines cohort; for Phil # responders (n = 38) / Phil % responders (n = 38) / Prov # responders (n = 22) / Prov % responders (n = 22): positive if SI≧2.0, peptide 1 and 10 μg/ml; for Prov # responders (n = 22) / Prov % responders (n = 22): Providence cohort; for number of Mtb-immune responders (proliferative response): all 40 Mtb-immune subjects; for number of Mtb-immune responders (proliferative response) / % responders among Mtb-immune subjects: SI≧2.0
# [2] = system: peripheral blood mononuclear cells from Mtb-naïve (PPD skin-test negative) subjects; assay: Lymphoproliferation assay ([3H]thymidine, stimulation index), Mtb-naïve group; assay type: cell-based, human; details: 19 Mtb-naïve controls; SI≧2.0
substance,measurement,setting,value
"AELPGVDPDKDVD (listed as Mycobacterium tuberculosis) [16-3, aa 54-66 of 16 kDa Mtb protein]",Phil # responders (n = 38),[1],0
same,Phil % responders (n = 38),[1],0%
same,Prov # responders (n = 22),[1],1
same,Prov % responders (n = 22),[1],3%
same,number of Mtb-immune responders (proliferative response),[1],one
"ALYLLDGLRAQDD (listed as Mycobacterium tuberculosis) [32-2, aa 35-47 of 32 kDa Mtb protein (Antigen 85A)]",Phil # responders (n = 38),[1],3
same,Phil % responders (n = 38),[1],8%
same,Prov # responders (n = 22),[1],2
same,Prov % responders (n = 22),[1],5%
"CEVWSNVSETISGPRLYGEM (listed as Mycobacterium tuberculosis) [14-5, aa 74-93 of 14 kDa Mtb protein]",Phil # responders (n = 38),[1],2
same,Phil % responders (n = 38),[1],5%
same,Prov # responders (n = 22),[1],2
same,Prov % responders (n = 22),[1],5%
"EYWGAQLNAMKP (listed as Mycobacterium tuberculosis) [32-11, aa 265-276 of 32 kDa Mtb protein (Antigen 85A)]",Phil # responders (n = 38),[1],3
same,Phil % responders (n = 38),[1],8%
same,Prov # responders (n = 22),[1],1
same,Prov % responders (n = 22),[1],3%
"FAYGSFVRTVSLPVGA (listed as Mycobacterium tuberculosis) [16-5, aa 92-107 of 16 kDa Mtb protein]",% responders among Mtb-immune subjects,[1]; 40 Mtb-immune subjects,28%
same,Phil # responders (n = 38),[1],4
same,Phil % responders (n = 38),[1],10%
same,Prov # responders (n = 22),[1],7
same,Prov % responders (n = 22),[1],18%
same,number of Mtb-immune responders (proliferative response),[1],six
same,Mtb-naïve controls who responded,[2],none
"FSELFAAFPSFAGLRPTFDT (listed as Mycobacterium tuberculosis) [16-2, aa 17-36 of 16 kDa Mtb protein]",Phil # responders (n = 38),[1],4
same,Phil % responders (n = 38),[1],10%
same,Prov # responders (n = 22),[1],1
same,Prov % responders (n = 22),[1],3%
"GILTVSVAVSEGKPTEK (listed as Mycobacterium tuberculosis) [16-6, aa 119-135 of 16 kDa Mtb protein]",Phil # responders (n = 38),[1],2
same,Phil % responders (n = 38),[1],5%
same,Prov # responders (n = 22),[1],1
same,Prov % responders (n = 22),[1],3%
"GSFGSAPSNGWLKLGLVEFG (listed as Mycobacterium tuberculosis) [14-2, aa 19-38 of 14 kDa Mtb protein]",Phil # responders (n = 38),[1],6
same,Phil % responders (n = 38),[1],15%
same,Prov # responders (n = 22),[1],3
same,Prov % responders (n = 22),[1],8%
same,number of Mtb-immune responders (proliferative response),[1],six
"GVFDFPDSGTHSW (listed as Mycobacterium tuberculosis) [32-10, aa 252-264 of 32 kDa Mtb protein (Antigen 85A)]",Phil # responders (n = 38),[1],3
same,Phil % responders (n = 38),[1],8%
same,Prov # responders (n = 22),[1],2
same,Prov % responders (n = 22),[1],5%
IAIGGAATGIAAVLTDGNPP [19-3],Phil # responders (n = 38),[1],4
same,Phil % responders (n = 38),[1],10%
same,Prov # responders (n = 22),[1],3
same,Prov % responders (n = 22),[1],8%
same,number of Mtb-immune responders (proliferative response),[1],six
"KFLEGFVRTSNIKFQD (listed as Mycobacterium tuberculosis) [32-9, aa 227-242 of 32 kDa Mtb protein (Antigen 85A)]",Phil # responders (n = 38),[1],3
same,Phil % responders (n = 38),[1],8%
same,Prov # responders (n = 22),[1],3
same,Prov % responders (n = 22),[1],8%
same,number of Mtb-immune responders (proliferative response),[1],six
"LAIYHPQQFVYAGAMSGLLD (listed as Mycobacterium tuberculosis) [32-7, aa 135-154 of 32 kDa Mtb protein (Antigen 85A)]",Phil # responders (n = 38),[1],5
same,Phil % responders (n = 38),[1],13%
same,Prov # responders (n = 22),[1],6
same,Prov % responders (n = 22),[1],15%
same,number of Mtb-immune responders (proliferative response),[1],six
"LKLGLVEFGGVAKLNAEVMS (listed as Mycobacterium tuberculosis) [14-3, aa 30-49 of 14 kDa Mtb protein]",Phil # responders (n = 38),[1],3
same,Phil % responders (n = 38),[1],8%
same,Prov # responders (n = 22),[1],4
same,Prov % responders (n = 22),[1],10%
same,number of Mtb-immune responders (proliferative response),[1],six
"LPVEYLQVPSPSMGR (listed as Mycobacterium tuberculosis) [32-1, aa 6-20 of 32 kDa Mtb protein (Antigen 85A)]",Phil # responders (n = 38),[1],3
same,Phil % responders (n = 38),[1],8%
same,Prov # responders (n = 22),[1],2
same,Prov % responders (n = 22),[1],5%
"LTIKAERTEQK (listed as Mycobacterium tuberculosis) [16-4, aa 74-84 of 16 kDa Mtb protein]",Phil # responders (n = 38),[1],0
same,Phil % responders (n = 38),[1],0%
same,Prov # responders (n = 22),[1],5
same,Prov % responders (n = 22),[1],13%
"MLGNAPSVVPNTTLGMHC (listed as Mycobacterium tuberculosis) [14-1, aa 1-18 of 14 kDa Mtb protein]",Phil # responders (n = 38),[1],2
same,Phil % responders (n = 38),[1],5%
same,Prov # responders (n = 22),[1],2
same,Prov % responders (n = 22),[1],5%
"PLLNVGKLIANNTRVWVY (listed as Mycobacterium tuberculosis) [32-8, aa 193-210 of 32 kDa Mtb protein (Antigen 85A)]",% responders among Mtb-immune subjects,[1]; 40 Mtb-immune subjects,25%
same,Phil # responders (n = 38),[1],5
same,Phil % responders (n = 38),[1],13%
same,Prov # responders (n = 22),[1],0
same,Prov % responders (n = 22),[1],0%
same,Mtb-naïve controls who responded,[2],none
"QAVMLGTGTPNRA (listed as Mycobacterium tuberculosis) [14-4, aa 56-68 of 14 kDa Mtb protein]",Phil # responders (n = 38),[1],3
same,Phil % responders (n = 38),[1],8%
same,Prov # responders (n = 22),[1],1
same,Prov % responders (n = 22),[1],3%
QNVTGSVVCTTAAGNVN [19-2],Phil # responders (n = 38),[1],3
same,Phil % responders (n = 38),[1],8%
same,Prov # responders (n = 22),[1],4
same,Prov % responders (n = 22),[1],10%
same,number of Mtb-immune responders (proliferative response),[1],six
"RHVKPTGSAVVGLSMAASSA (listed as Mycobacterium tuberculosis) [32-5, aa 113-132 of 32 kDa Mtb protein (Antigen 85A)]",Phil # responders (n = 38),[1],2
same,Phil % responders (n = 38),[1],5%
same,Prov # responders (n = 22),[1],8
same,Prov % responders (n = 22),[1],20%
same,number of Mtb-immune responders (proliferative response),[1],six
"RSLFPEFSELFAAFPSFAGL (listed as Mycobacterium tuberculosis) [16-1, aa 11-30 of 16 kDa Mtb protein]",Phil # responders (n = 38),[1],4
same,Phil % responders (n = 38),[1],10%
same,Prov # responders (n = 22),[1],2
same,Prov % responders (n = 22),[1],5%
same,number of Mtb-immune responders (proliferative response),[1],six
SHYKITGTATGVD [19-5],Phil # responders (n = 38),[1],1
same,Phil % responders (n = 38),[1],3%
same,Prov # responders (n = 22),[1],3
same,Prov % responders (n = 22),[1],8%
"SVVMPVGGQSSFYSDW (listed as Mycobacterium tuberculosis) [32-3, aa 67-82 of 32 kDa Mtb protein (Antigen 85A)]",Phil # responders (n = 38),[1],5
same,Phil % responders (n = 38),[1],13%
same,Prov # responders (n = 22),[1],2
same,Prov % responders (n = 22),[1],5%
same,number of Mtb-immune responders (proliferative response),[1],six
"TFLTSELPGWLQ (listed as Mycobacterium tuberculosis) [32-4, aa 99-110 of 32 kDa Mtb protein (Antigen 85A)]",Phil # responders (n = 38),[1],2
same,Phil % responders (n = 38),[1],5%
same,Prov # responders (n = 22),[1],2
same,Prov % responders (n = 22),[1],5%
"TT: tetanus toxoid, control antigen (Connaught) [reference compound]",SI range,[1],2-182
same,Mtb-immune subjects showing an in vitro proliferative response,"[1]; control antigen 5 μg/ml, 40 Mtb-immune subjects",All but six
VAVAGAAILVAGLSGCSSN [19-1],Phil # responders (n = 38),[1],5
same,Phil % responders (n = 38),[1],13%
same,Prov # responders (n = 22),[1],8
same,Prov % responders (n = 22),[1],20%
"VGLSMAASSALTLAIYHPQQ (listed as Mycobacterium tuberculosis) [32-6, aa 123-142 of 32 kDa Mtb protein (Antigen 85A)]",Phil # responders (n = 38),[1],4
same,Phil % responders (n = 38),[1],10%
same,Prov # responders (n = 22),[1],6
same,Prov % responders (n = 22),[1],15%
same,number of Mtb-immune responders (proliferative response),[1],six
"VSETISGPRLYGEMTMQGTR (listed as Mycobacterium tuberculosis) [14-6, aa 80-99 of 14 kDa Mtb protein]",Phil # responders (n = 38),[1],1
same,Phil % responders (n = 38),[1],3%
same,Prov # responders (n = 22),[1],1
same,Prov % responders (n = 22),[1],3%
"VTLGYTSGTGQ (listed as Mycobacterium tuberculosis) [19-4, aa 107-117 of 19 kDa Mtb protein]",Phil # responders (n = 38),[1],2
same,Phil % responders (n = 38),[1],5%
same,Prov # responders (n = 22),[1],3
same,Prov % responders (n = 22),[1],8%
phytohemagglutinin [reference compound],response to mitogen,"[1]; PHA 1 μg/ml, the 41 subjects who were tested",robust response
